Active and inactive are the calls of the source. The rule behind the calls is not given here.
Experiments:
[1] = biological target: Calcium/calmodulin-dependent protein kinase type IV (Homo sapiens) (UniProt Q16566); experiment: Inhibition of human CAMK4 at 1 uM using KKLNRTLSFAEPG as substrate in presence of [gamma33P]-ATP by HotSpot assay relative to control
[2] = biological target: MAP kinase-activated protein kinase 3 (Homo sapiens) (UniProt Q16644); experiment: Inhibition of human MAPKAPK3 at 1 uM using KKLNRTLSVA as substrate in presence of [gamma33P]-ATP by HotSpot assay relative to control
[3] = biological target: Tyrosine-protein kinase receptor TYRO3 (Homo sapiens) (UniProt Q06418); experiment: Inhibition of human TYRO3 at 1 uM using poly (Glu, Tyr)4:1 as substrate in presence of [gamma33P]-ATP by HotSpot assay relative to control
[4] = biological target: Serine/threonine-protein kinase 24 (Homo sapiens) (UniProt Q9Y6E0); experiment: Inhibition of human STK24 at 1 uM using MBP as substrate in presence of [gamma33P]-ATP by HotSpot assay relative to control
[5] = biological target: G protein-coupled receptor kinase 4 (Homo sapiens) (UniProt P32298); experiment: Inhibition of human GRK4 at 1 uM using casein as substrate in presence of [gamma33P]-ATP by HotSpot assay relative to control
[6] = biological target: cGMP-dependent protein kinase 2 (Homo sapiens) (UniProt Q13237); experiment: Inhibition of human PRKG2 at 1 uM using LRRASLG as substrate in presence of [gamma33P]-ATP by HotSpot assay relative to control
[7] = biological target: NT-3 growth factor receptor (Homo sapiens) (UniProt Q16288); experiment: Inhibition of human NTRK3 at 1 uM using poly (Glu, Tyr)4:1 as substrate in presence of [gamma33P]-ATP by HotSpot assay relative to control
[8] = tested on: EML4-ALK (Homo sapiens), Q9UM73+Q9HC35 [L1152R]; conditions: BaF3, dose 500.0 nmol/L, time 3-5 weeks
[9] = tested on: EML4-ALK (Homo sapiens), Q9UM73+Q9HC35 [L1196M]; conditions: BaF3, time 3-5 weeks
[10] = biological target: Rhodopsin kinase GRK7 (Homo sapiens) (UniProt Q8WTQ7); experiment: Inhibition of human GRK7 at 1 uM using casein as substrate in presence of [gamma33P]-ATP by HotSpot assay relative to control
[11] = biological target: Serine/threonine-protein kinase TAO1 (Homo sapiens, UniProt Q7L7X3); experiment: Inhibition of human TAOK1 using MBP as substrate in presence of [gamma33P]-ATP by HotSpot assay
[12] = biological target: Dual specificity tyrosine-phosphorylation-regulated kinase 1B (Homo sapiens) (UniProt Q9Y463); experiment: Inhibition of human DYRK1B at 1 uM using RRRFRPASPLRGPPK as substrate in presence of [gamma33P]-ATP by HotSpot assay relative to control
[13] = biological target: Dual specificity protein kinase CLK4 (Homo sapiens) (UniProt Q9HAZ1); experiment: Inhibition of human CLK4 at 1 uM using MBP as substrate in presence of [gamma33P]-ATP by HotSpot assay relative to control
Aurora kinase B = Aurora kinase B (Homo sapiens, UniProt Q96GD4); experiment: Inhibition of human AURKB using H-LRRASLG as substrate in presence of [gamma33P]-ATP by HotSpot assay
[14] = tested on: Epidermal growth factor receptor (Homo sapiens), P00533 [UNDEFINED MUTATION]; conditions: BaF3, time 72.0 hrs
[15] = biological target: Tyrosine-protein kinase Blk (Homo sapiens, UniProt P51451); experiment: Inhibition of human BLK using poly (Glu, Tyr)4:1 as substrate in presence of [gamma33P]-ATP by HotSpot assay
[16] = biological target: Tyrosine-protein kinase receptor UFO (Homo sapiens) (UniProt P30530); experiment: Inhibition of human AXL at 1 uM using poly (Glu, Tyr)4:1 as substrate in presence of [gamma33P]-ATP by HotSpot assay relative to control
[17] = biological target: Glycogen synthase kinase-3 alpha (Homo sapiens) (UniProt P49840); experiment: Inhibition of human GSK3alpha at 1 uM using YRRAAVPPSPSLSRHSSPHQ(pS)EDEEE as substrate in presence of [gamma33P]-ATP by HotSpot assay relative to control
BaF3 = experiment: Antitumor activity against mouse BaF3 cells expressing native EML4-ALK implanted in mouse assessed as tumor regression at 25 mg/kg, po administered once daily and measured after 8 days relative to control; format: functional; conditions: time 8 day
[18] = biological target: Dual specificity tyrosine-phosphorylation-regulated kinase 2 (Homo sapiens) (UniProt Q92630); experiment: Inhibition of human DYRK2 at 1 uM using RRRFRPASPLRGPPK as substrate in presence of [gamma33P]-ATP by HotSpot assay relative to control
[19] = tested on: EML4-ALK (Homo sapiens), Q9UM73+Q9HC35 [I1171N]; conditions: BaF3, dose 750.0 nmol/L, time 3-5 weeks
[20] = tested on: EML4-ALK (Homo sapiens), Q9UM73+Q9HC35 [L1198F]; conditions: BaF3, dose 500.0 nmol/L, time 3-5 weeks
[21] = Average plasma concentration in human at 180 mg administered once a day; format: ADME; conditions: in vivo
[22] = tested on: Epidermal growth factor receptor (Homo sapiens), P00533 [L858R,T790M]; conditions: BaF3, time 72.0 hrs
[23] = tested on: EML4-ALK (Homo sapiens), Q9UM73+Q9HC35 [G1269A]; conditions: BaF3, time 3-5 weeks
[24] = biological target: Tyrosine-protein kinase JAK3 (Homo sapiens) (UniProt P52333); experiment: Inhibition of human JAK3 at 1 uM using MBP as substrate in presence of [gamma33P]-ATP by HotSpot assay relative to control
[25] = biological target: CDK3/Cyclin E (Homo sapiens) (UniProt P24864+Q00526); experiment: Inhibition of human CDK3/CyclinE at 1 uM using RB protein as substrate in presence of [gamma33P]-ATP by HotSpot assay relative to control; format: protein-complex assay
[26] = biological target: Mitogen-activated protein kinase 9 (Homo sapiens) (UniProt P45984); experiment: Inhibition of human JNK2a2 at 1 uM using ATF2 as substrate in presence of [gamma33P]-ATP by HotSpot assay relative to control
[27] = biological target: Protein kinase C theta type (Homo sapiens) (UniProt Q04759); experiment: Inhibition of human PKCtheta at 1 uM using ERMRPRKRQGSVRRRV as substrate in presence of [gamma33P]-ATP by HotSpot assay relative to control
[28] = biological target: Serine/threonine-protein kinase Sgk2 (Homo sapiens) (UniProt Q9HBY8); experiment: Inhibition of human SGK2 at 1 uM using KGSGSGRPRTSSFAEG as substrate in presence of [gamma33P]-ATP by HotSpot assay relative to control

Chain of Epidermal growth factor receptor (Homo sapiens), P00533 [UNDEFINED MUTATION] (P00533 whole entry, looked up, change not shown): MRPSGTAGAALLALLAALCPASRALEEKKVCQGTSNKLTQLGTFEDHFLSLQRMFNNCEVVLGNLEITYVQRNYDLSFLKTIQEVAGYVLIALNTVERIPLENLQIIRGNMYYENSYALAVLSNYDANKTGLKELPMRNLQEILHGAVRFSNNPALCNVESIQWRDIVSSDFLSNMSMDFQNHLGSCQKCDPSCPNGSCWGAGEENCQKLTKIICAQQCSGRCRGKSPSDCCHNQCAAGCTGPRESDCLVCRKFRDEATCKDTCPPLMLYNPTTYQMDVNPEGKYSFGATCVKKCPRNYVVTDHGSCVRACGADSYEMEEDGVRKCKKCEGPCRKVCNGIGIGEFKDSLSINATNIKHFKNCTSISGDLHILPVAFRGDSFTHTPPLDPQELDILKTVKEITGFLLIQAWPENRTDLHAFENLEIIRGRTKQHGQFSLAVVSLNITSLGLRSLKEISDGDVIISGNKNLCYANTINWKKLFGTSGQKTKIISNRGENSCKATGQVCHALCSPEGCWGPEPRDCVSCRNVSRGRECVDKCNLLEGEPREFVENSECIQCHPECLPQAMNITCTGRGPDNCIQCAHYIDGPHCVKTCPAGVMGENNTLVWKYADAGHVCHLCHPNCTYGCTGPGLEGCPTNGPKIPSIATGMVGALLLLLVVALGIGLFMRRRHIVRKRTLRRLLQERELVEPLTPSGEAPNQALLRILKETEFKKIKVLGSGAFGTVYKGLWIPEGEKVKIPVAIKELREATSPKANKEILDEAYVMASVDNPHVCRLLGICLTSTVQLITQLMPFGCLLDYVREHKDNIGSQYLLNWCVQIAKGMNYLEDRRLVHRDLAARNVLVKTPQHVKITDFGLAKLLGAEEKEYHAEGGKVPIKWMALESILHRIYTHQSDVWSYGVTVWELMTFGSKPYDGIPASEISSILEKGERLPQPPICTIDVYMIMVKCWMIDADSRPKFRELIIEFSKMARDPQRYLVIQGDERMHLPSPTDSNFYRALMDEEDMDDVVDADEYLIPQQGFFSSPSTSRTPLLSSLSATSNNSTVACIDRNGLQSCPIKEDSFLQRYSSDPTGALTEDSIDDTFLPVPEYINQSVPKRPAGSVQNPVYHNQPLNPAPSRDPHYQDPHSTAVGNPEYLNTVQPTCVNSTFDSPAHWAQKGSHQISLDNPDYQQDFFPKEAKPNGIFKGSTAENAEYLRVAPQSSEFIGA
Chain of G protein-coupled receptor kinase 4 (Homo sapiens) (P32298 whole entry, looked up): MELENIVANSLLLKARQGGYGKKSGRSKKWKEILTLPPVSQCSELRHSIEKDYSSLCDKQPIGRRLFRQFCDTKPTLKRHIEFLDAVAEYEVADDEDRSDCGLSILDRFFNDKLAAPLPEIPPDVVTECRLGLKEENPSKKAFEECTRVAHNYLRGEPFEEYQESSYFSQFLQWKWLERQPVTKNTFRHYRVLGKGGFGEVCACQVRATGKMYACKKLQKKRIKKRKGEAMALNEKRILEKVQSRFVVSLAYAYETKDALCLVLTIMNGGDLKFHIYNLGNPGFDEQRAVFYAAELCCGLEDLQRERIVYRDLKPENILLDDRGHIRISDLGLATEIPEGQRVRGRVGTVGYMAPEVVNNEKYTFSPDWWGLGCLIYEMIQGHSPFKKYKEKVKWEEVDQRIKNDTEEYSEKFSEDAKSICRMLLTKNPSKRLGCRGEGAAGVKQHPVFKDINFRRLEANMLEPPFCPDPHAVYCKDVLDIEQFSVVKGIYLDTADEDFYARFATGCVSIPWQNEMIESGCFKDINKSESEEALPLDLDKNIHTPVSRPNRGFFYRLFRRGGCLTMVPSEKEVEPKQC
Chain of Tyrosine-protein kinase JAK3 (Homo sapiens) (P52333 whole entry): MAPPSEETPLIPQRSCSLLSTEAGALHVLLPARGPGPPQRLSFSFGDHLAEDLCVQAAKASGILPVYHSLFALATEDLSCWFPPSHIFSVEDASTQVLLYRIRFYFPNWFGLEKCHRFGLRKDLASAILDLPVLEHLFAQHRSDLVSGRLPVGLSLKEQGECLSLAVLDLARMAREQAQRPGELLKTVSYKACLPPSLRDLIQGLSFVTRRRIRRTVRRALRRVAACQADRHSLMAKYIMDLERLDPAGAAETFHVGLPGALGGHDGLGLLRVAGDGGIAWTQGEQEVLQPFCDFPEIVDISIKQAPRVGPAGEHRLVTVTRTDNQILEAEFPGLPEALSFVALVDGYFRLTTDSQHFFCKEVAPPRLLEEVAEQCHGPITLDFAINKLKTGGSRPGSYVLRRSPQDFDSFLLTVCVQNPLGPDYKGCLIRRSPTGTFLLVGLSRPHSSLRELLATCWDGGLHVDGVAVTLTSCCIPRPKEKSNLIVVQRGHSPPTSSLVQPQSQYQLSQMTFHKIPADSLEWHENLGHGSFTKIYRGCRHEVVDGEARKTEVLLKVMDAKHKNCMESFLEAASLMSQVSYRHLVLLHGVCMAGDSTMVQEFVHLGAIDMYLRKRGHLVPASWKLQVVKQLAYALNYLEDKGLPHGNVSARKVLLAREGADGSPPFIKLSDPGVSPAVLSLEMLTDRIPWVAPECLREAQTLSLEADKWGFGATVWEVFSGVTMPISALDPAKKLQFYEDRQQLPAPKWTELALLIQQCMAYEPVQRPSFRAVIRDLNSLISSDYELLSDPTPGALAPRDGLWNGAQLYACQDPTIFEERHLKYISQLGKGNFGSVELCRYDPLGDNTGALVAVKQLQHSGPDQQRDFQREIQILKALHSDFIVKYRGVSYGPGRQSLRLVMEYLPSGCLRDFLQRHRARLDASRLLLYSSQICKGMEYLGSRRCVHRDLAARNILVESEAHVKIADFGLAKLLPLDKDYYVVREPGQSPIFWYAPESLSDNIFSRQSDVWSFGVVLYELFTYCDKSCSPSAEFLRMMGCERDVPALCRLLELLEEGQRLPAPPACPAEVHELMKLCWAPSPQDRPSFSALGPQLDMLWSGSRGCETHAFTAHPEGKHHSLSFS
Chain of Dual specificity protein kinase CLK4 (Homo sapiens) (Q9HAZ1 whole entry, looked up): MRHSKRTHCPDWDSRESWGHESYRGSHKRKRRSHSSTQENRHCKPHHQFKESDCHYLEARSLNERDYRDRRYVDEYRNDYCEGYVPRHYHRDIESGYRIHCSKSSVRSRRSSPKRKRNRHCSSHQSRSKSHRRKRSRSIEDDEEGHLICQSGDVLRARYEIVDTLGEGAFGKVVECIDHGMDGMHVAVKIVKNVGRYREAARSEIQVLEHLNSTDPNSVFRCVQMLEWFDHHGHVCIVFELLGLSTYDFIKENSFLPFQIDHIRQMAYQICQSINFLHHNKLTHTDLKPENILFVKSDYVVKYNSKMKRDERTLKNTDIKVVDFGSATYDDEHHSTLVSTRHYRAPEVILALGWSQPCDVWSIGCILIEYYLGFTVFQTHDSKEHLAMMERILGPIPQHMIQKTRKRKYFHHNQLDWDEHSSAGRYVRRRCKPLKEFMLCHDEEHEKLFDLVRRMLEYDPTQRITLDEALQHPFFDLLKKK
Chain of CDK3/Cyclin E (Homo sapiens) (P24864 whole entry, looked up): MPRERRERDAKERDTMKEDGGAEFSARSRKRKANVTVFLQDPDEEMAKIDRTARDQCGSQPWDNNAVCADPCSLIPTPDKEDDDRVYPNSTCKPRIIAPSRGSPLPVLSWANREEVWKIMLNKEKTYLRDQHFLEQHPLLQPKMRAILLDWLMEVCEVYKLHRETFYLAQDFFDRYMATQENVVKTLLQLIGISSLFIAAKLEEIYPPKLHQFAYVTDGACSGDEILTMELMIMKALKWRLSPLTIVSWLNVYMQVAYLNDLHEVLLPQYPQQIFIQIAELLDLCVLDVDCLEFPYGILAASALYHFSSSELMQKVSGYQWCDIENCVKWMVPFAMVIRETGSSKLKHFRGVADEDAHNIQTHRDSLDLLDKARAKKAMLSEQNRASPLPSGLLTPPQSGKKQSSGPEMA
Chain of CDK3/Cyclin E (Homo sapiens) (Q00526 whole entry, looked up): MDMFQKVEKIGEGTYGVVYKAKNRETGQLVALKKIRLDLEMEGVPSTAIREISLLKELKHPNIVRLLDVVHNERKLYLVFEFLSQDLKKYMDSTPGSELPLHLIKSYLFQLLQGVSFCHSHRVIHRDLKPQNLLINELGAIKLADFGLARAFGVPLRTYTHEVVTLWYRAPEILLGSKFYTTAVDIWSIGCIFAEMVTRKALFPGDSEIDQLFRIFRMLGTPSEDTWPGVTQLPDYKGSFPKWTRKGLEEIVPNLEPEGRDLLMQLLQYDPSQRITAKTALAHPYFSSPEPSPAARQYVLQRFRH
Chain of NT-3 growth factor receptor (Homo sapiens) (Q16288 32-839 limits assumed): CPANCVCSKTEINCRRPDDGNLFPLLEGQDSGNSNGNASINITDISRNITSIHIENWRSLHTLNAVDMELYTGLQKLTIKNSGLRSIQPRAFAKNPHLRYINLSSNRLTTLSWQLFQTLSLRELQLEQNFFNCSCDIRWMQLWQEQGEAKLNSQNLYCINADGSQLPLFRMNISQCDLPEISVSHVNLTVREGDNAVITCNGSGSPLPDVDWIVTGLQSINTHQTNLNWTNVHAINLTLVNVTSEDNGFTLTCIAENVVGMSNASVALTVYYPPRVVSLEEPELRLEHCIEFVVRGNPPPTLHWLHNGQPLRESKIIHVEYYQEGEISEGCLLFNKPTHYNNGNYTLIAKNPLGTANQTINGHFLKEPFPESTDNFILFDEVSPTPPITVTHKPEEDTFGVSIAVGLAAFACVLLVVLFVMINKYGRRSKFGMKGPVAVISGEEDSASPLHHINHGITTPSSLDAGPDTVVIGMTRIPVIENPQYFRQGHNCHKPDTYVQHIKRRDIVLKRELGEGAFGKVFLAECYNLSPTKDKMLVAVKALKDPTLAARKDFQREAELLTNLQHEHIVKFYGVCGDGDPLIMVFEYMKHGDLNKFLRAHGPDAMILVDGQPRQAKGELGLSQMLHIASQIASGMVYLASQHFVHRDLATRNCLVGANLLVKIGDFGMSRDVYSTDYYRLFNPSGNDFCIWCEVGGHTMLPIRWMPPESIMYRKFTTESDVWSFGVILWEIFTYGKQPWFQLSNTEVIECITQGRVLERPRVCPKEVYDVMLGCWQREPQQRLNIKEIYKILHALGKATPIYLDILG

## COc1cc(N2CCC(N3CCN(C)CC3)CC2)ccc1Nc1ncc(Cl)c(Nc2ccccc2P(C)(C)=O)n1 [BRIGATINIB]
[1]
  inhibition: < 90%
[2]
  inhibition: < 90%
[3]
  inhibition: < 90%
[4]
  inhibition: < 90%
[5]
  inhibition: < 90%
[6]
  inhibition: < 90%
[7]
  inhibition: < 90%
[8]
  inhibition: Active
[9]
  IC90: 118 nM
[10]
  inhibition: < 90%
[11]
  IC50: 493 nM
[12]
  inhibition: < 90%
[13]
  inhibition: < 90%
Aurora kinase B
  IC50: > 1000 nM
[14]
  IC90: 314 nM
[15]
  IC50: 136 nM
[16]
  inhibition: < 90%
[17]
  inhibition: < 90%
BaF3
  Activity: 100%
[18]
  inhibition: < 90%
[19]
  inhibition: Active
[20]
  inhibition: Active
[21]
  Cave: 1447 nM
[22]
  IC90: 2970 nM
[23]
  IC90: 22 nM
[24]
  inhibition: < 90%
[25]
  inhibition: < 90%
[26]
  inhibition: < 90%
[27]
  inhibition: < 90%
[28]
  inhibition: < 90%
